# Assay results reported in patent publication US20080261994A1, “CYCLOPROPANE COMPOUNDS AND PHARMACEUTICAL USE THEREOF” (Japan Tobacco Inc., priority 2003, published 2008).
# Where two headings read alike, the source gives them in different places.
# How the values were obtained:
# Format in all cases: biochemical
# aggrecanase-1 = biological target: T1, aggrecanase-1 (Homo sapiens, UniProt O75173); test: Aggrecanase-1 inhibitory action (Particle Assay, GAG release from aggrecan-containing polyacrylamide particles)
# T1 sequence (O75173 213-837): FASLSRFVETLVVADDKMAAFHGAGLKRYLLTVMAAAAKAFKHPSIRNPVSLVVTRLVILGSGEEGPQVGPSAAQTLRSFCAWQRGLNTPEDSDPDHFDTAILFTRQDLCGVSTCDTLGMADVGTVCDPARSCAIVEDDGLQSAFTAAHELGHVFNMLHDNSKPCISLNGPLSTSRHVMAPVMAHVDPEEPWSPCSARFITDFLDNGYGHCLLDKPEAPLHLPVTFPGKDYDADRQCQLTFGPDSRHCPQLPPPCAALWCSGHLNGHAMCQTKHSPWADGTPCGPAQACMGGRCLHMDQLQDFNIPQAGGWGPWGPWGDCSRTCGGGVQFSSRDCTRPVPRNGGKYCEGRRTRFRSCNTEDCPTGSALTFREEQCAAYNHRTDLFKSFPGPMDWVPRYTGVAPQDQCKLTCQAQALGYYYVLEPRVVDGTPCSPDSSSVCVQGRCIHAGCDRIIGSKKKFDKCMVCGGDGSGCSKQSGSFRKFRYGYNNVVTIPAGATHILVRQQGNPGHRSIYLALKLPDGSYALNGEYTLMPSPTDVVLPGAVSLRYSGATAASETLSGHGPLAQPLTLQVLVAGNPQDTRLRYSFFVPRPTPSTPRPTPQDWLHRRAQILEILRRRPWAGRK
# Procedure: Particle Assay was used for determination of aggrecanase activity.
# (§1) The enzyme and substrate were diluted with Tris-HCl buffer, and test compounds were diluted with dimethyl sulfoxide (DMSO).
# Test compounds and the enzyme were added into 96-well plate, and polyacrylamide particles containing aggrecan were added as a substrate and the mixture was incubated at 37° C. for 15 hr.
# After incubation, the supernatant was transferred to another plate, and mixed with 1,9-dimethylmethylene blue. The absorbence at 595 nm was measured to quantify the amount of glycosaminoglycan (GAG) released in the reaction supernatant. Whale chondroitin sulfate was used as the standard of GAG. The inhibitory activity of the compound in each well (%) was calculated based on the values of enzyme-free well and inhibitor-free well. The inhibitory activity of the compound was represented as […] (μM).
# Recombinant Human MMP-13 = biological target: T2, Recombinant Human MMP-13 (Homo sapiens, UniProt P45452); test: MMP-13 inhibitory activity (MMP-13 specific fluorescent substrate with quencher)
# T2 construct: purchased R&D systems 511-MM
# Procedure: Inhibitory activity of tested compounds on MMP-13 was measured using MMP-13 specific fluorescent substrate with quencher.
# as §1
# Test compounds and the enzyme (Recombinant Human MMP-13: R&D systems, 511-MM) were added into 96-well plate. The reaction was initiated by adding synthetic substrate (7-MCA-Pro-CHA-Gly-NVal-His-Ala-DPA: enzyme systems products, Met-06) into the plate. After incubation at 25° C. for 1 h, the reaction was terminated by addition of reaction terminating solution containing acetic acid. Fluorescence intensity of each well was measured (Ex: 325 nm, […] 405 nm) and the MMP-13 inhibitory activity of the compound in each well (%) was calculated based on the values of enzyme-free well and inhibitor-free well. The inhibitory activity of the compound was represented as IC50 (μM).
# MMP-1 = biological target: T3, MMP-1 (Homo sapiens, UniProt P03956); test: MMP-1 inhibitory action (Type I collagen Activity Measurement kit, FITC-labeled collagen type I)
# T3 sequence (P03956 100-469): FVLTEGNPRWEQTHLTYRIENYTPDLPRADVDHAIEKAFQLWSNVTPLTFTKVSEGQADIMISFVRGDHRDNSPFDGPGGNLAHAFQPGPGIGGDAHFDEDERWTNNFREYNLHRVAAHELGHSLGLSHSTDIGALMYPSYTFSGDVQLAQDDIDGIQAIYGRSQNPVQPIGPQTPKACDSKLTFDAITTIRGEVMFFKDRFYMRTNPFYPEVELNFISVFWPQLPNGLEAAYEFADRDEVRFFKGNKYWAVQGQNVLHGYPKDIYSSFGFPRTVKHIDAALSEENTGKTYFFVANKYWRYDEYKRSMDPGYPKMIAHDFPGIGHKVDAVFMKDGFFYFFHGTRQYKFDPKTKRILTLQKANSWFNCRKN
# Procedure: For MMP-1 Assay, Type I collagen Activity Measurement kit (YAGAI YU-72013) modified to a 96-well plate format was used.
# The principle of the kit is based on the property of collagen that becomes soluble in ethanol after being cleaved by MMP-1.
# as §1
# The enzyme and test compounds were added into 96-well plate, and fluorescein isothiocianate (FITC)-labeled collagen type I was added as a substrate and the mixture was incubated at 37° C. for 3 hr.
# The reaction was terminated by addition of Tris-HCl buffer containing ethanol. After centrifugation, the supernatant containing denatured substrate was transferred to another 96-well plate. The collagenase activity of MMP-1 was determined by measuring FITC fluorescence intensity (excitation wavelength 485 nm, emission wavelength 530 nm) of each well. The inhibitory activity of the compound in each well (%) was calculated based on the values of enzyme-free well and inhibitor-free well. The inhibitory activity of the compound was represented as IC50 (μM).
# [1] = Experimental Example 1, read-out: IC50 AG1
# [2] = Experimental Example 3, read-out: IC50 MMP13
# [3] = aggrecanase-1 inhibitory action, read-out: IC50 AG1 (Experimental Example 1)
# [4] = Recombinant Human MMP-13, fluorescent substrate, 25° C. for 1 h, read-out: IC50 MMP13 (Experimental Example 3)
# [5] = MMP-1 inhibitory action, FITC-labeled collagen type I, 37° C. for 3 hr, read-out: IC50 MMP1 (Experimental Example 2)
# [6] = Experimental Example 2, read-out: IC50 MMP1
Structure (SMILES),IC50 (aggrecanase-1; [3]) [µM],IC50 (MMP-1; [5]) [µM],also measured
C[C@]1(c2ccccc2)C[C@@]1(NS(=O)(=O)c1ccc(-c2ccc(N)cc2)s1)C(=O)O [Example 2-583],,,IC50 (aggrecanase-1; [1]): ≥ 1 µM; IC50 (Recombinant Human MMP-13; [2]): ≥ 1 µM
O=C(O)C1(NS(=O)(=O)N2CCN(c3cccc(C(F)(F)F)c3)CC2)CC1c1ccccc1 (stereo not drawn) [Example 2-28],≥ 1,,IC50 (Recombinant Human MMP-13; [4]): ≥ 10 µM
O=C(O)C1(NS(=O)(=O)N2CCN(c3cccc(Cl)c3)CC2)CC1c1ccccc1 (stereo not drawn) [Example 2-31],≥ 1,,IC50 (Recombinant Human MMP-13; [4]): ≥ 1 µM
C[C@]1(c2ccccc2)C[C@@]1(NS(=O)(=O)c1ccc(N2CCC(F)(F)CC2)s1)C(=O)O [Example 2-455],,,IC50 (aggrecanase-1; [1]): ≥ 1 µM; IC50 (Recombinant Human MMP-13; [2]): ≥ 1 µM
Cn1nncc1-c1ccc(S(=O)(=O)N[C@@]2(C(=O)O)C[C@]2(C)c2ccccc2)s1 [Example 2-586],,,IC50 (aggrecanase-1; [1]): ≥ 1 µM; IC50 (Recombinant Human MMP-13; [2]): ≥ 10 µM
COc1ccc(-c2ccc(S(=O)(=O)N[C@@]3(C(=O)O)C[C@@H]3c3ccccc3)s2)nn1 [Example 2-33],≥ 1,,IC50 (Recombinant Human MMP-13; [4]): < 1 µM
O=C1Nc2ccccc2C2CC12NS(=O)(=O)c1ccc(-c2ccc(Cl)cc2)s1 (stereo not drawn) [Example 2-218],≥ 1,≥ 10,
Cn1ccnc1CNc1cccc(C2CC2(NS(=O)(=O)c2ccc(-c3ccc(Cl)cc3)cc2)C(=O)O)c1 (stereo not drawn) [Example 1-101],< 1,≥ 10,
O=C(O)C1(NS(=O)(=O)c2ccc(-c3ccc(Cl)cc3)cc2)CC1c1ccccc1Oc1ccccc1 (stereo not drawn) [Example 1-14],< 1,≥ 10,
O=C(O)[C@]1(NS(=O)(=O)c2ccc(-c3cc4ccccn4c3)s2)C[C@@H]1c1ccccc1 [Example 2-135],≥ 1,,IC50 (Recombinant Human MMP-13; [4]): < 0.1 µM
N#Cc1ccc(-c2ccc(S(=O)(=O)N[C@@]3(C(=O)O)C[C@@H]3c3ccccc3)s2)s1 [Example 2-34],≥ 1,,IC50 (Recombinant Human MMP-13; [4]): < 1 µM
C[C@]1(c2ccccc2)C[C@@]1(NS(=O)(=O)c1csc2ccc(-c3ccccc3)cc12)C(=O)O [Example 2-585],,,IC50 (aggrecanase-1; [1]): ≥ 1 µM; IC50 (Recombinant Human MMP-13; [2]): ≥ 1 µM
COc1ccccc1C1CC1(NS(=O)(=O)c1ccc(-c2ccc(Cl)cc2)s1)C(=O)O (stereo not drawn) [Example 1-4],< 0.1,≥ 1,
CN1CCC(N(C)Cc2cccc(C3CC3(NS(=O)(=O)c3ccc(-c4ccc(Cl)cc4)s3)C(=O)O)c2)CC1 (stereo not drawn) [Example 1-104],< 1,≥ 10,
COc1ccccc1C1CC1(NS(=O)(=O)c1ccc(-c2ccc(Cl)cc2)cc1)C(=O)O (stereo not drawn) [Example 1-13],< 1,≥ 1,
O=C(O)C1(NS(=O)(=O)c2ccc(-c3ccc(Cl)cc3)s2)CC1c1cccnc1 (stereo not drawn) [Example 2-70],< 1,≥ 10,
CN(C)C(=O)COc1cccc(C2CC2(NS(=O)(=O)c2ccc(-c3ccc(Cl)cc3)cc2)C(=O)O)c1 (stereo not drawn) [Example 1-114],< 1,≥ 1,
O=C(O)C1(NS(=O)(=O)N2CCN(c3ccc(Cl)c(C(F)(F)F)c3)CC2)CC1c1ccccc1 (stereo not drawn) [Example 2-30],≥ 1,,IC50 (Recombinant Human MMP-13; [4]): ≥ 1 µM
O=C(O)[C@]1(NS(=O)(=O)c2ccc(-c3csc4ccccc34)s2)C[C@@H]1c1ccccc1 [Example 2-118],≥ 1,≥ 1,
CN(C)Cc1cccc(C2CC2(NS(=O)(=O)c2ccc(-c3ccc(Cl)cc3)s2)C(=O)O)c1 (stereo not drawn) [Example 1-98],< 1,≥ 10,

Structure (SMILES),IC50 (aggrecanase-1; [3]) [µM],IC50 (MMP-1; [5]) [µM],also measured
O=C(O)C1(NS(=O)(=O)c2ccc(-c3ccc(Cl)cc3)cc2)CC1c1cccc(O)c1 (stereo not drawn) [Example 1-44],< 1,≥ 1,
O=C(O)[C@]1(NS(=O)(=O)c2ccc(-c3ccc(C(F)F)s3)s2)C[C@@H]1c1ccccc1 [Example 2-102],< 1,< 1,
O=C(O)[C@]1(NS(=O)(=O)c2ccc(-c3ccc(Cl)cc3Cl)s2)C[C@@H]1c1ccccc1 [Example 1-125],< 0.1,≥ 10,
CC1[C@H](c2ccccc2)[C@]1(NS(=O)(=O)c1ccc(-c2nc3cc(Cl)ccc3[nH]2)s1)C(=O)O (stereo partly drawn) [Example 2-604],,,IC50 (aggrecanase-1; [1]): < 1 µM; IC50 (MMP-1; [6]): ≥ 1 µM
O=C(O)C1(NS(=O)(=O)N2CCN(c3ccc(C(F)(F)F)cc3)CC2)CC1c1ccccc1 (stereo not drawn) [Example 2-29],≥ 1,,IC50 (Recombinant Human MMP-13; [4]): < 0.1 µM
CC(C)(C)OC(=O)N1CCC(Nc2cccc(C3CC3(NS(=O)(=O)c3ccc(-c4ccc(Cl)cc4)cc3)C(=O)O)c2)CC1 (stereo not drawn) [Example 1-42],< 1,≥ 1,
CC1[C@H](c2ccccc2)[C@]1(NS(=O)(=O)c1ccc(-c2cnc3ccccc3n2)s1)C(=O)O (stereo partly drawn) [Example 2-456],,,IC50 (aggrecanase-1; [1]): ≥ 1 µM; IC50 (Recombinant Human MMP-13; [2]): ≥ 1 µM
O=C(O)[C@@]1(NS(=O)(=O)c2ccc(-c3ccc(Cl)cc3)cc2)C[C@H]1c1ccccc1 [Example 1-7],< 1,≥ 10,
O=C(O)[C@]1(NS(=O)(=O)c2ccc(-c3nsc(CF)n3)s2)C[C@@H]1c1ccccc1 [Example 2-115],≥ 1,,IC50 (Recombinant Human MMP-13; [4]): < 1 µM
O=C(O)C1(NS(=O)(=O)c2ccc(-c3ccc(Cl)cc3)cc2)CC1c1cccc(NCc2ncc[nH]2)c1 (stereo not drawn) [Example 1-112],< 1,≥ 1,
CNC(=O)COc1cccc(C2CC2(NS(=O)(=O)c2ccc(-c3ccc(Cl)cc3)cc2)C(=O)O)c1 (stereo not drawn) [Example 1-118],< 0.1,≥ 1,
O=C(O)C1(NS(=O)(=O)c2ccc(-c3ccc(Cl)cc3)s2)CC1c1ccccc1Br (stereo not drawn) [Example 2-167],< 1,≥ 10,
Cc1cnc(-c2ccc(S(=O)(=O)N[C@@]3(C(=O)O)C(C)[C@@H]3c3ccccc3)s2)o1 (stereo partly drawn) [Example 2-417],,,IC50 (aggrecanase-1; [1]): < 1 µM; IC50 (MMP-1; [6]): ≥ 1 µM
O=C(O)C1(NS(=O)(=O)c2ccc(-c3ccc(Cl)cc3)s2)CC1c1cccc(O)c1 (stereo not drawn) [Example 1-116],< 1,≥ 1,
O=C(CO)Nc1cccc(C2CC2(NS(=O)(=O)c2ccc(-c3ccc(Cl)cc3)cc2)C(=O)O)c1 (stereo not drawn) [Example 1-105],< 1,≥ 1,
O=C(O)[C@]1(NS(=O)(=O)c2ccc(-c3cccc(Cl)c3)s2)C[C@@H]1c1ccccc1 [Example 1-110],< 1,≥ 1,
"O=C(O)[C@]1(NS(=O)(=O)c2ccc(-c3ccc(Cl)cc3)cc2)C[C@@H]1c1ccccc1 [Example 1, (1S,2R)-1-(4′-Chlorobiphenyl-4-sulfonylamino)-2-phenylcyclopropanecarboxylic acid]",< 1,≥ 1,
O=C(COc1ccccc1C1CC1(NS(=O)(=O)c1ccc(-c2ccc(Cl)cc2)s1)C(=O)O)NCc1ccccc1 (stereo not drawn) [Example 1-145],< 1,≥ 10,
O=C(O)C1(NS(=O)(=O)c2ccc(-c3ccc(Br)cc3)cc2)CC1c1ccccc1 (stereo not drawn) [Example 1-31],< 1,≥ 10,
